Results: patent US12692253B2, “Antimicrobial compounds and methods” (Curza Global, LLC, priority 2019, dated 2026)

Columns and labels:
[1] = target: Rabbit Reticulocyte Lysate (eukaryotic protein synthesis); assay: Rabbit reticulocyte lysate luciferase assay (inhibition of eukaryotic protein synthesis); type: biochemical; details: % inhibition @ 1 μM, read-out: Rabbit reticulocyte IC50 (μM/% inhib.)
Method in brief: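 In vitro translation of luciferase control RNA in nuclease-treated rabbit reticulocyte lysate with amino acid mixture, compounds in 2-fold serial dilution, 90 minutes at 30° C. Luminescence read after luciferase reagent; % inhibition relative to water no-inhibitor controls, with no-RNA background wells.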

[2] = tested on: E. faecalis (Ef); assay: Broth microdilution minimum inhibitory concentration (MIC), CLSI; type: cell-based; details: Enterococcus faecalis, growth medium with sodium bicarbonate, read-out: Ef + bicarb MIC
Method in brief: (§1)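 Bacteria grown at 35±2 °C to 0.5 McFarland turbidity were added at 5×10^4 CFU/well to triplicate two-fold compound series (8 dilutions). Media were cation-adjusted Mueller-Hinton broth alone or with sodium bicarbonate (6.25 or 25 mM final) or heat-inactivated human serum (0–50%), per modified CLSI method.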

[3] = tested on: S. aureus (Sa); assay: as above; type: cell-based; details: Staphylococcus aureus, growth medium with sodium bicarbonate, read-out: Sa + bicarb MIC
Method in brief: as §1

[4] = tested on: P. aeruginosa (Pa); assay: as above; type: cell-based; details: Pseudomonas aeruginosa, growth medium with sodium bicarbonate, read-out: Pa MIC + bicarb
Method in brief: as §1

[5] = tested on: A. baumannn (Ab); assay: as above; type: cell-based; details: A. baumannn; growth medium with sodium bicarbonate; read-out: Ab + bicarb MIC
Method in brief: as §1

[6] = tested on: E. coli (Ec); assay: as above; type: cell-based; details: Escherichia coli, growth medium with sodium bicarbonate, read-out: E. coli + bicarb MIC
Method in brief: as §1

[7] = tested on: E. coli S30 extract (bacterial protein synthesis); assay: E. coli S30 extract coupled transcription-translation luciferase assay (inhibition of bacterial protein synthesis); type: biochemical; details: % inhibition @ 1 μM, read-out: S30 IC50 (μM/% inhib.)
Method in brief: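 Coupled transcription-translation in E. coli S30 circular-DNA extract expressing luciferase from pBESTluc, with 8-point 2-fold compound dilutions; 1 hour at 37 °C, stopped at 4 °C. Luminescence read; % inhibition versus no-inhibitor wells, no-DNA wells as background.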

Structure (SMILES)	IC50 [1] [µM]	MIC [2] [µg/mL]	MIC [3] [µg/mL]	MIC [4] [µg/mL]	MIC [5] [µg/mL]	MIC [6] [µg/mL]	IC50 [7] [µM]
CC(C)(N)C(=O)N1CCN(C(=O)Nc2ccn(-c3ccc(C[C@H](N)NN4C[C@@H]5[C@@H](N)[C@@H]5C4)cc3)c(=O)n2)CC1 [Compound 178]	≥ 1	> 32	> 32	> 32	> 32	> 32	≥ 1
CC(C)(N)C(=O)N1CCN(C(=O)Nc2ccn(-c3ccc(CCCN4C[C@@H]5[C@@H](N)[C@@H]5C4)cc3)c(=O)n2)CC1 [Compound 179]	≥ 1	> 32	< 8	> 32	> 32	8 to 32	≥ 1
CC(C)(N)C(=O)N1CCN(C(=O)Nc2ccn(-c3ccc(CCCN4CCC5(CC4)CC(N)C5)cc3)c(=O)n2)CC1 [Compound 180]	≥ 1	> 32	8 to 32	> 32	> 32	< 8	≥ 1
CC(COc1ccc(-n2ccc(NC(=O)N3CCN(C(=O)C(C)(C)N)CC3)nc2=O)cc1)N1CC2(CC(N)C2)C1 (stereo not shown) [Compound 181]	≥ 1	< 8	< 8	> 32	> 32	< 8	0.5 to 1
CC(C)(N)C(=O)N1CCN(C(=O)Nc2ccn(-c3ccc(C[C@H](N)C(=O)N4C[C@@H]5[C@@H](CN)[C@@H]5C4)cc3)c(=O)n2)CC1 [Compound 182]	≥ 1	> 32	> 32	> 32	> 32	> 32	≥ 1
CC(C)(N)C(=O)N1CCN(C(=O)Nc2ccn(-c3ccc(C[C@H](N)C(=O)N4CC5CC5(CN)C4)cc3)c(=O)n2)CC1 (stereo partly shown) [Compound 183]	≥ 1	> 32	> 32	> 32	> 32	> 32	≥ 1
CC(C)(N)C(=O)N1CCN(C(=O)Nc2ccn(-c3ccc(CCCN4CC5CC5(CN)C4)cc3)c(=O)n2)CC1 (stereo not shown) [Compound 184]	≥ 1	8 to 32	< 8	> 32	> 32	< 8	≥ 1
CC(C)(N)C(=O)N1CCN(C(=O)Nc2ccn(-c3ccc(CCCN4C[C@@H]5[C@@H](CN)[C@@H]5C4)cc3)c(=O)n2)CC1 [Compound 185]	≥ 1	8 to 32	< 8	> 32	> 32	< 8	≥ 1
CC(CN1C[C@@H]2[C@@H](CN)[C@@H]2C1)Oc1ccc(-n2ccc(NC(=O)N3CCN(C(=O)C(C)(C)N)CC3)nc2=O)cc1 (stereo partly shown) [Compound 186]	≥ 1	< 8	< 8	> 32	8 to 32	< 8	< 0.5
CC(C)(N)C(=O)N1CCN(C(=O)Nc2ccn(-c3ccc(OCCN4C[C@@H]5[C@@H](CN)[C@@H]5C4)cc3)c(=O)n2)CC1 [Compound 187]	≥ 1	< 8	< 8	8 to 32	8 to 32	< 8	< 0.5
CC(COc1ccc(-n2ccc(NC(=O)N3CCN(C(=O)C(C)(C)N)CC3)nc2=O)cc1)N1C[C@@H]2[C@@H](CN)[C@@H]2C1 (stereo partly shown) [Compound 188]	≥ 1	< 8	< 8	8 to 32	8 to 32	< 8	< 0.5
CC(COc1ccc(-n2ccc(NC(=O)N3CCN(C(=O)C(C)(C)N)CC3)nc2=O)cc1)N1CC2CC2(CN)C1 (stereo not shown) [Compound 189]	≥ 1	< 8	< 8	> 32	> 32	< 8	< 0.5
CC(C)(N)C(=O)N1CCN(C(=O)Nc2ccn(-c3ccc(CNC[C@@H]4[C@H]5CNC[C@@H]45)cc3)c(=O)n2)CC1 [Compound 190]	≥ 1	8 to 32	< 8	> 32	> 32	< 8	< 0.5
CC(Cc1ccc(-n2ccc(NC(=O)N3CCN(C(=O)C(C)(C)N)CC3)nc2=O)cc1)N(C)C1CC2(CC(N)C2)C1 (stereo not shown) [Compound 191]	≥ 1	< 8	< 8	8 to 32	8 to 32	< 8	≥ 1
CC(Cc1ccc(-n2ccc(NC(=O)N3CCN(C(=O)C(C)(C)N)CC3)nc2=O)cc1F)NC1CC2(CC(N)C2)C1 (stereo not shown) [Compound 192]	≥ 1	< 8	< 8	> 32	> 32	< 8	≥ 1
CN(CCc1ccc(-n2ccc(NC(=O)N3CCN(C(=O)C(C)(C)N)CC3)nc2=O)cc1)C1CC2(CC(N)C2)C1 (stereo not shown) [Compound 193]	≥ 1	8 to 32	< 8	> 32	> 32	< 8	≥ 1
CC(Cc1ccc(-n2ccc(NC(=O)N3CCN(C(=O)C(C)(C)N)CC3)nc2=O)cc1)N(CC1CC1)C1CC2(CC(N)C2)C1 (stereo not shown) [Compound 194]	≥ 1	< 8	< 8	> 32	8 to 32	< 8	0.5 to 1
CC(Cc1ccc(-n2ccc(NC(=O)N3CCN(C(=O)C(C)(C)N)CC3)nc2=O)cc1)N(CC(F)(F)F)C1CC2(CC(N)C2)C1 (stereo not shown) [Compound 195]	≥ 1	> 32	8 to 32	> 32	> 32	> 32	≥ 1
CC(C)N(C(C)Cc1ccc(-n2ccc(NC(=O)N3CCN(C(=O)C(C)(C)N)CC3)nc2=O)cc1)C1CC2(CC(N)C2)C1 (stereo not shown) [Compound 196]	≥ 1	> 32	> 32	> 32	> 32	> 32	≥ 1
CC(Cc1ccc(-n2ccc(NC(=O)N3CCN(C(=O)C(C)(C)N)CC3)nc2=O)cc1)N(CCO)C1CC2(CC(N)C2)C1 (stereo not shown) [Compound 197]	≥ 1	8 to 32	< 8	> 32	> 32	< 8	≥ 1
CCN(C(C)Cc1ccc(-n2ccc(NC(=O)N3CCN(C(=O)C(C)(C)N)CC3)nc2=O)cc1)C12CC(N)(C1)C2 (stereo not shown) [Compound 198]	≥ 1	> 32	8 to 32	> 32	> 32	8 to 32	≥ 1
CC(Cc1ccc(-n2ccc(NC(=O)N3CCN(C(=O)C(C)(C)N)CC3)nc2=O)cc1)N(C)C12CC(N)(C1)C2 (stereo not shown) [Compound 199]	≥ 1	> 32	8 to 32	> 32	> 32	8 to 32	≥ 1
